Our source for the IC50 values is publication PMC10889091, “Isolation, Characterization, Genome Annotation, and Evaluation of Tyrosinase Inhibitory Activity in Secondary Metabolites of Paenibacillus sp. JNUCC32: A Comprehensive Analysis through Molecular Docking and Molecular Dynamics Simulation” (International Journal of Molecular Sciences, 2024).

For this assay, the target named is T1, mushroom tyrosinase (Agaricus bisporus, UniProt C7FF04).
T1 construct: gene PPO3
Put plainly: mushroom tyrosinase (Sigma T3824) assay with L-tyrosine, absorbance at […] nm. Format: biochemical.

The IC50 is the concentration at which inhibition is half-maximal. Read a low IC50 as greater potency.

T1 sequence (C7FF04 2-392): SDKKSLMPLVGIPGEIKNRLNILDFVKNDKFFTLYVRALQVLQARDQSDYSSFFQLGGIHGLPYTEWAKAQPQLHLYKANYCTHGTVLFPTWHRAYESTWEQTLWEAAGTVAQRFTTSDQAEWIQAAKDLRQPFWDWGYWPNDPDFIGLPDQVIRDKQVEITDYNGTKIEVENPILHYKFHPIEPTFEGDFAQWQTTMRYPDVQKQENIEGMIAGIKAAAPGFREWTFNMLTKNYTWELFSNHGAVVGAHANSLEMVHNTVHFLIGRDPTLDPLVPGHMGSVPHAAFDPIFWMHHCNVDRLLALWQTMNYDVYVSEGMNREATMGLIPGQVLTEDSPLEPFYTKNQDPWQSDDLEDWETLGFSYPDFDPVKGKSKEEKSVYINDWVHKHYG

As to `OCCc1c[nH]c2ccccc12` [compound 1, tryptophol], the IC50 worked out at 999 µM.
